Laboratory results as given in patent US7169769B2, “17α-hydroxy-14β-steroids with hormonal effect” (Akzo Nobel N.V., priority 2001, dated 2007).

How the values were obtained:
[1] = reported in Heusser et al Helv Chim Acta Vol 22, 1949; cited from earlier work
[2] = test system: human hepatocytes; assay: Determination of t1/2 (metabolic stability) after incubation with human hepatocytes; type: in vitro ADME; settings: 100 nM compound, 0.5, 1 and 2 h, class relative to 17α-methyltestosterone and testosterone; for t1/2 Bioassay: supernatant analysed by androgenic activity bioassay (example 6)
Procedure: The half-life of a compound as a result of contact with human hepatocytes holds as a reliable indication of metabolic stability. As it is well known that the absorption of this class of steroids is high, this assay provides an in vitro model for oral activity in humans.
Hepatocytes collected from healthy young (25–45 year) male organ donors were cryo preserved in liquid nitrogen and kept there until use. They were thawed at 37° C. in a waterbath, placed immediately on ice, washed twice in one volume of cold (4° C.) incubation medium [William's medium E (without phenol red) with Glutamax I®, gentamicin 50 μg/ml, insulin 1 μM, fetal calf serum 0% (v/v)], counted and the viability checked by Trypan blue exclusion. Cells were incubated as suspensions in 96-wells (non-coated) plates at a nominal density of 3×10^4 cells/well in 300 μl medium at 37° C. with an air/CO2 mixture (95/5).
The hepatocytes were incubated with 100 nM final concentration of the compound to be tested. The incubations were stopped after 0.5, 1 and 2 h by centrifugation at 200 g. The supernatant was collected for liquid chromatography coupled to immediate mass spectroscopic analysis (LC-MS/MS analysis) and for bioassay. For the latter 10 μl was used for determination of the androgenic activity. The androgenicity was determined as described at example 6. The final compound concentration for determination of androgenic activity was 1 nmol/l.
The metabolic stability (t1/2) of the compounds of the invention were classified according to the following scheme: • (+++) metabolic stability>17α-methyltestosterone (MT) • (++) 17α-methyltestosterone>metabolic stability>80% of 17α-methyltestosterone • (+) 80% of 17α-methyltestosterone>metabolic stability>testosterone • (−) metabolic stability<testosterone Results are collected in Table 1.

[3] = biological target: T1, human androgen receptor (hAR) (Homo sapiens, UniProt P10275); assay: Transactivative androgen activity in CHO cells transfected with hAR and MMTV-luciferase reporter, compared with 5α-dihydrotestosterone; type: cell-based; set-up: concentration or dose not given beside the values; settings: incubation 16 h, 37° C., compared with the activity of 5α-dihydrotestosterone
T1 construct: expressed in transfected cells; host or cells: Chinese hamster ovary cells (CHO)
T1 sequence (P10275 1-920): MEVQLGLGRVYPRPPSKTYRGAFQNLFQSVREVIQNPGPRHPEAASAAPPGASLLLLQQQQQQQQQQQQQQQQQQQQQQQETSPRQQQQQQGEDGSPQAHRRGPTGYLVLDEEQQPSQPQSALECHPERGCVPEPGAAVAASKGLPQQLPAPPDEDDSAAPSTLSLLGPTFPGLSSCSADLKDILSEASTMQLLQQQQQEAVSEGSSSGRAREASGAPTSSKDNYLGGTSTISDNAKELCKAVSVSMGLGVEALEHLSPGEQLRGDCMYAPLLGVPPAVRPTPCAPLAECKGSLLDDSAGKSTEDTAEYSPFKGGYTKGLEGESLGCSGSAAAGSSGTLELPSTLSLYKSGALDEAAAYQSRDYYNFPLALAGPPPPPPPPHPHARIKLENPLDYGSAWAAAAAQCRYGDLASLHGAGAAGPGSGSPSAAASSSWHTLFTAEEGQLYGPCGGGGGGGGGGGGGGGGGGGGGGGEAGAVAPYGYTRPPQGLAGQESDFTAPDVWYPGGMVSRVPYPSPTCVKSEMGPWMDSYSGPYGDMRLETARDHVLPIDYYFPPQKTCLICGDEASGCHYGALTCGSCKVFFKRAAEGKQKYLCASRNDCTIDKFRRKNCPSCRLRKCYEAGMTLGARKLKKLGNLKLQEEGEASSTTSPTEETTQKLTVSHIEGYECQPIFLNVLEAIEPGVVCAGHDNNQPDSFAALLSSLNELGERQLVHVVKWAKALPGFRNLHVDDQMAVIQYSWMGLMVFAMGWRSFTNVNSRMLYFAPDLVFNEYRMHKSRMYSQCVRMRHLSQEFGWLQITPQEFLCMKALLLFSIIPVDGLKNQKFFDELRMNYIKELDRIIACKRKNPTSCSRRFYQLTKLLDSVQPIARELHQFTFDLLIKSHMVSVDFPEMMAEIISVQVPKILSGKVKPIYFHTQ
Procedure: The transactivative androgen activity of the compounds of the invention was measured in Chinese hamster ovary cells (CHO) transfected with the human androgen receptor (hAR), in combination with a mouse mammary tumor virus (MMTV), and luciferase […] gene (incubation time 16 h, temperature 37° C.) and compared with the activity of 5α-dihydrotestosterone [Schoonen, W. G. E. J.; de Ries, R. J. H.; Joosten, J. W. H.; Mathijssen-Mommers, G. J. W.; Kloosterboer, H. J., Analyt. Biochem. 261, 222–224 (1998)].

| SMILES | androgenic activity [1] | t1/2 LC-MS/MS ([2]; supernatant analysed by LC-MS/MS) | t1/2 Bioassay [2] | Androgen activity (%) [3] |
| --- | --- | --- | --- | --- |
| C[C@]12CC[C@H]3[C@@H](CCC4=CC(=O)CC[C@@]43C)[C@H]1CC[C@H]2O [17α-hydroxy-14β-testosterone] | no androgenic activity | – | – | – |
| C[C@@H]1CC2=CC(=O)CC[C@@H]2[C@H]2CC[C@]3(C)[C@H](O)[C@@H](C)C[C@@H]3[C@@H]21 [Example 1, (7α,14β,16β,17α)-17-Hydroxy-7,16-dimethylestr-4-en-3-one] | – | (+ +) | (+ +) | 99.0% |
| C[C@@H]1CC2=CC(=O)CC[C@@H]2[C@H]2CC[C@]3(C)[C@H](O)[C@H](C)C[C@@H]3[C@@H]21 [Example 2, (7α,14β,16α,17α)-17-Hydroxy-7,16-dimethylestr-4-en-3-one] | – | – | (+ +) | 38.7% |
| C[C@@H]1CC2=CC(=O)CC[C@@H]2[C@H]2CC[C@@]3(C)[C@H](CC(C)(C)[C@H]3O)[C@@H]21 [Example 3, (7α,14β,17α)-17-hydroxy-7,16,16-trimethylestr-4-en-3-one] | – | – | – | 78.5% |
| CC[C@H]1C[C@@H]2[C@H]3[C@H](CC[C@]2(C)[C@@H]1O)[C@H]1CCC(=O)C=C1C[C@H]3C [Example 4a, (7α,14β,16β,17α)-16-Ethyl-17-hydroxy-7-methylestr-4-en-3-one] | – | – | – | 20.0% |
| CC[C@@]1(C)C[C@@H]2[C@H]3[C@H](CC[C@]2(C)[C@@H]1O)[C@H]1CCC(=O)C=C1C[C@H]3C [Example 4b, (7α,14β,16β,17α)-16-Ethyl-17-hydroxy-7,16-dimethylestr-4-en-3-one] | – | – | – | 24.0% |
| C[C@@H]1CC2=CC(=O)CC[C@@H]2[C@H]2CC[C@]3(C)[C@H](O)CC[C@@H]3[C@@H]21 [Ref. comp. 2, (7α,14β,17α)-17-Hydroxy-7-methylestr-4-en-3-one, reference compound] | – | – | – | 60.5% |
